Experimental data from BindingDB's records for patent US11466047 (Merck Sharp & Dohme, 2022).

Target: T1, Stimulator of interferon genes protein [R71H,G230A,H232R,R293Q] (Homo sapiens, UniProt Q86WV6, G230A/H232R/R293Q/R71H)
T1 construct: gene STING1
Assay: 3H-cGAMP Filtration Binding Assay
Protocol: The compounds were serially titrated by the Hamilton STARPlus CORE in a 96-well plate (Greiner, #651201) using a 1:3 ten-point dose response format. After compound preparation, a 2.2 ug/ml working concentration of STING membrane (SEQ. ID. No. 1) was prepared by diluting concentrated membrane into assay buffer (lx PBS; Invitrogen #SH30028.02) and douncing 7× using a manual tissue homogenizer (Wheaton, #357546). 148 uL of prepared membrane was then manually added to each well of a 96-well deep-well polypropylene plate (Fisher Scientific, #12-566-121). Following membrane addition, 2 uL of either titrated test compound, DMSO control (Sigma #276855), or cold cGAMP control was added to the appropriate wells using a BIOMEK FX. Compound and membrane then preincubated for 60 min at RT to allow compound binding to equilibrate. Following equilibration, 8 nM of [3H]c-GAMP ligand was prepared by diluting into assay buffer, and 50 uL of this working stock was then manually added to each well of the assay plate. Plates were then incubated at RT for 60 min, and the contents of each assay plate were then filtered through a 96-well GF/B filter plate (PerkinElmer, #6005250) using a TOMTEC MACH III Cell Harvester equipped with 20 mM HEPES buffer (Fisher Scientific, #BP299500). […] Tritium levels for each reaction well were then measured using a PerkinElmer TopCount plate reader.

T1 sequence (Q86WV6 whole entry R71H/G230A/H232R/R293Q, looked up): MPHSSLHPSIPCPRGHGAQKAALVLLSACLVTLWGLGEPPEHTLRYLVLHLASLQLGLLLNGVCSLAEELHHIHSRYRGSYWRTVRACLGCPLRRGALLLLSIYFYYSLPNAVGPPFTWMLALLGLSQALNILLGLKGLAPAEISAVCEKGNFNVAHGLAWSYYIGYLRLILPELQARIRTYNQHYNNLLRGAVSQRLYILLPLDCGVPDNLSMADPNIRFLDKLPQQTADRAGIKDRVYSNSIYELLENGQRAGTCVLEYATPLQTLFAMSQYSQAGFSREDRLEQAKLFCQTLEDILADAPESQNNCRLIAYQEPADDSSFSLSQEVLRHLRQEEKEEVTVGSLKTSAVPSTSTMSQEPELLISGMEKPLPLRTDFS

Nc1nc2c(ncn2[C@@H]2O[C@@H]3COP(=S)(S)O[C@H]4[C@H](F)[C@H](n5cnc6c(=O)[nH]cnc65)O[C@@H]4COP(O)(=S)O[C@@H]2[C@@H]3F)c(=O)[nH]1 (stereo partly specified) [US11466047, Example 27]
EC50: < 1 nM
